From patent publication EP4186514A1, “PHARMACEUTICAL COMPOSITION FOR PREVENTING OR TREATING CHOLANGITIS OR LIVER DISEASE CAUSED BY CHOLANGITIS COMPRISING ADENOSINE DERIVATIVE” (Future Medicine Co., Ltd., priority 2021, dated 2023) come the findings set out here.

A short description of one data set: Equilibrium solubility. The class given is physicochemical. The note with it: listed as compound of the formula A. The protocol: In order to test the physicochemical properties of the adenosine derivative of the inventive concept, experiments were conducted on the compound of the formula A in vitro, and the results are shown in Table 3. Plasma stability and protein binding were measured using rat and human plasma.

For data set [1], the system named is histidine-requiring Salmonella (strains TA98, TA100, TA1535 and TA1537) and tryptophan-requiring Escherichia coli (strain WP2uvrA (pKM101)). The class given is cell-based. As for the experimental part: In order to test the genotoxicity of the compound of the formula A, the gene mutagenicity of the compound of the formula A was evaluated in the presence and absence of metabolic activation by using histidine-requiring Salmonella (strains TA98, TA100, TA1535 and TA1537) and tryptophan-requiring Escherichia coli (strain WP2uvrA (pKM101)).

The next data set addresses hERG channel protein (Homo sapiens, UniProt Q12809). Kind of data set: hERG ligand binding assay (fluorescence polarization). From the text: In order to test the hERG ligand binding assay of the compound of the formula A, a non-electrophysiological method was used to evaluate heart stability by evaluating fluorescence polarization according to the degree of hERG channel protein binding of a red fluorescent hERG channel ligand tracer.
On the technique in general: Block of hERG is tested as a sign of cardiac risk.

Chain of hERG channel protein (Q12809 whole entry): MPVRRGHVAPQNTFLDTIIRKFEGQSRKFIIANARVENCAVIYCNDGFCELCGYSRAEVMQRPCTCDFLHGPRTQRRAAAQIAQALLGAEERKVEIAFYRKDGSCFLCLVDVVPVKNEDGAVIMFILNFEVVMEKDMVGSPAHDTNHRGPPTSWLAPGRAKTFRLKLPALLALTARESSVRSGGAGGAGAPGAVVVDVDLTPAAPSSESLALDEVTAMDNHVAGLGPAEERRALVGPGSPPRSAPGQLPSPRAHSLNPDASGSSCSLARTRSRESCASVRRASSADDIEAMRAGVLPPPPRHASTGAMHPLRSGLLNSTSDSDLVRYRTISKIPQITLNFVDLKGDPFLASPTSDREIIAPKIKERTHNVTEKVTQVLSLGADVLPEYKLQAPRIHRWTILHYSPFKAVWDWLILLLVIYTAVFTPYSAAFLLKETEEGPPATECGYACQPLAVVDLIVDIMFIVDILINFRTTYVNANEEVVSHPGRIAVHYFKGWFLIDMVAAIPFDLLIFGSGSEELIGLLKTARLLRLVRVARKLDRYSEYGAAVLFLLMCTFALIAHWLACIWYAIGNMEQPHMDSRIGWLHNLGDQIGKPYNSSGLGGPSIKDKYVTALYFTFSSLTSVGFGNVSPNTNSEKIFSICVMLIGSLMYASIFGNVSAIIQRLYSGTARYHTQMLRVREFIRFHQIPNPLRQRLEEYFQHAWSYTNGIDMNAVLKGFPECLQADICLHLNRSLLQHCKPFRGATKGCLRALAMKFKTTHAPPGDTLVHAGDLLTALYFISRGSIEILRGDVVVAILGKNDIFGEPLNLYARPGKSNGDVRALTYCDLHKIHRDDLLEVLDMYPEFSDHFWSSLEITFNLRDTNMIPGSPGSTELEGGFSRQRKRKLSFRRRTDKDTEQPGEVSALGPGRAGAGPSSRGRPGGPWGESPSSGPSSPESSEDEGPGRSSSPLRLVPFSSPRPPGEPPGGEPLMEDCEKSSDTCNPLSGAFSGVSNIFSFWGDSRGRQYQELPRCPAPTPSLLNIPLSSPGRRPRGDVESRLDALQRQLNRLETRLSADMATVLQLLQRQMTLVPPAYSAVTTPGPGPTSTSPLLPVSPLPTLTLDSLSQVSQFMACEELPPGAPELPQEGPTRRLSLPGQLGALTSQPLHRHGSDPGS

`O[C@@H]1[C@H](O)CS[C@H]1n1cnc2c(NCc3cccc(Cl)c3)nc(Cl)nc21` [Example 2, (2R,3R,4S)-2-(2-chloro-6-(3-chlorobenzylamino)-9H-purin-9-yl)tetrahydrothiophen-3,4-diol] showed an Equilibrium solubility in “Equilibrium solubility” of 2.76 µg/mL. Also, in data set [1] (all doses of each strain, regardless of the metabolic activation), the “number of back-mutant colonies versus negative control group” value is on record as “did not exceed twice the number of back-mutant colonies of the negative control group”. The “dose-dependent increase of back-mutant colonies” value in data set [1] (each strain, presence and absence of metabolic activation) is reported as “no dose-dependent increase was observed”. For the same compound, the “Toxicity, Genotoxicity evaluation” value in data set [1] (summary Table 11) is on record as “Not detected”. The “inhibition rate (hERG ligand binding)” value on hERG channel protein (10 µM of the compound) is listed as no more than 50%. In addition, the “Toxicity, hERG ligand binding assay evaluation” value at hERG channel protein (summary Table 11) is “Not detected”.
